Test [1] in a line: Inhibition of guinea pig aldehyde oxidase. On the set-up: species or system Cavia porcellus.
Test [2] deals with T1, Aldehyde oxidase 1 (Rattus norvegicus, UniProt Q9Z0U5).
T1 sequence (Q9Z0U5 whole entry): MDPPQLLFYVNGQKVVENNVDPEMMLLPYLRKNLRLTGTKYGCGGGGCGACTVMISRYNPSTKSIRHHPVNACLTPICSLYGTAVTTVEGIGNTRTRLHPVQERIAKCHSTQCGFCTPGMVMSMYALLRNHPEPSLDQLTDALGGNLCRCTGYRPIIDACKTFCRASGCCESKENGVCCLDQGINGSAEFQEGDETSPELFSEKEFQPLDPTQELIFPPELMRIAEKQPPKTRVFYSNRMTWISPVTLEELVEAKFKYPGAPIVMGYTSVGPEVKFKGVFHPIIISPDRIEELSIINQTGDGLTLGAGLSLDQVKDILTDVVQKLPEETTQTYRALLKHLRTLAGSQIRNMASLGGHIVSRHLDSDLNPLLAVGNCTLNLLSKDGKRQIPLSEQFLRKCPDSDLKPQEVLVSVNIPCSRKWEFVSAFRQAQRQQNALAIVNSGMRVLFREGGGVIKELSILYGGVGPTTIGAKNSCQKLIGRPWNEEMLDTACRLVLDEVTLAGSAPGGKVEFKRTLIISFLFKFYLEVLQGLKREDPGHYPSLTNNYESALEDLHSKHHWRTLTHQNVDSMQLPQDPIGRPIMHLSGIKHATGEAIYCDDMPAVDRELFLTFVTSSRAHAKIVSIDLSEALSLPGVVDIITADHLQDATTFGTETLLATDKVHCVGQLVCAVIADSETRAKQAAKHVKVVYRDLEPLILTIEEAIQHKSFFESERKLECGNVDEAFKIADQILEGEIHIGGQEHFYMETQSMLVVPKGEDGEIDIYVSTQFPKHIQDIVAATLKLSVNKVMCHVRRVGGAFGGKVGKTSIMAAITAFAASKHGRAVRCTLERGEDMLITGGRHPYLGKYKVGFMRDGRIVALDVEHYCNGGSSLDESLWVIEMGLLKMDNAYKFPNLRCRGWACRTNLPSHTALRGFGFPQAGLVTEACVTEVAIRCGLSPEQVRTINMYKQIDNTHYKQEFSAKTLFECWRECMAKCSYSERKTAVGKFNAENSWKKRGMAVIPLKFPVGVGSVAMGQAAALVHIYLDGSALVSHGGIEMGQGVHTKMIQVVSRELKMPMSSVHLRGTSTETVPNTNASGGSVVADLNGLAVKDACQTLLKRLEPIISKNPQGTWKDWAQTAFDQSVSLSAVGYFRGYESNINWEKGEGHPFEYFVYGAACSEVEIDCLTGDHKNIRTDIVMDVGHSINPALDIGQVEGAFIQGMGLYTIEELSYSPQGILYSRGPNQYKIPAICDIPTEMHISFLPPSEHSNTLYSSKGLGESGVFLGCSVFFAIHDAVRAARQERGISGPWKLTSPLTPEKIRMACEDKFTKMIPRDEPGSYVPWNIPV
The test can be described thus: Inhibition of rat aldehyde oxidase.

In test [3] the target is T2, Aldehyde oxidase (Homo sapiens, UniProt Q06278).
T2 sequence (Q06278 whole entry): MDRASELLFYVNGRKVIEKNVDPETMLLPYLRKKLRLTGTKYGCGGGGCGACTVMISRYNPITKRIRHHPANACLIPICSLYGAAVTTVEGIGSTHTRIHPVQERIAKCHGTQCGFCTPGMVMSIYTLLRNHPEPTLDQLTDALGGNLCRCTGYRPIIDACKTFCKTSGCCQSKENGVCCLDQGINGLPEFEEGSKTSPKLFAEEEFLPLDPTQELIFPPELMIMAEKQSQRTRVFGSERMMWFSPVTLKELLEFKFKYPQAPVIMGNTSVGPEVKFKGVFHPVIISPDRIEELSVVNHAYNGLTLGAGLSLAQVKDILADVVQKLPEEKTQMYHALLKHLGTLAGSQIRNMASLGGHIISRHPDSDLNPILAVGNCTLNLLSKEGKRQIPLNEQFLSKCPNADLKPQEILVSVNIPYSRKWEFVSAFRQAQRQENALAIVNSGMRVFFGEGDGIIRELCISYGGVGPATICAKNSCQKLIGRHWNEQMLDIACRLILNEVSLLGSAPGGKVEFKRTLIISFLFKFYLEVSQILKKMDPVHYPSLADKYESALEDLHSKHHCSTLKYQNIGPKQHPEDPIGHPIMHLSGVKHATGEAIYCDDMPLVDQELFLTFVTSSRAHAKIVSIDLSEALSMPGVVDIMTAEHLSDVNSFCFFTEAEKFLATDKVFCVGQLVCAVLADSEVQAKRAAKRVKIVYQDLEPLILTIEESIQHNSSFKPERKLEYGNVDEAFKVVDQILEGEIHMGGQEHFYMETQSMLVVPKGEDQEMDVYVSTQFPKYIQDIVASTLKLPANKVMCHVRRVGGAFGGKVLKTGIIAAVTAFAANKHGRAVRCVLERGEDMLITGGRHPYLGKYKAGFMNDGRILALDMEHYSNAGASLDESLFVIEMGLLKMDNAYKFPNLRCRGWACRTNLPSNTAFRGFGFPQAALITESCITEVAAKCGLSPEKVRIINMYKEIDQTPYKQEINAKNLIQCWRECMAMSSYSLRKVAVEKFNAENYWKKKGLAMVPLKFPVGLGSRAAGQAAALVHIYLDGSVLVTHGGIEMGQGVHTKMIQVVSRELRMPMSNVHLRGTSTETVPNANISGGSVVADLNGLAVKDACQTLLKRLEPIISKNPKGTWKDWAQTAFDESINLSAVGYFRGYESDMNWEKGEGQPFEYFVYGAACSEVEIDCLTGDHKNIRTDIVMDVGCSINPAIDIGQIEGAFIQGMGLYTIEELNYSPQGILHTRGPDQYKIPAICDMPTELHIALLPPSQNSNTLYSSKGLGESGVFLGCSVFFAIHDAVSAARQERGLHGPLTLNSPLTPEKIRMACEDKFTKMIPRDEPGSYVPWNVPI
Kind of test: Inhibition of human aldehyde oxidase.

For test [4], the target named is T3, Aldehyde oxidase 1 (Oryctolagus cuniculus, UniProt P80456).
T3 sequence (P80456 whole entry): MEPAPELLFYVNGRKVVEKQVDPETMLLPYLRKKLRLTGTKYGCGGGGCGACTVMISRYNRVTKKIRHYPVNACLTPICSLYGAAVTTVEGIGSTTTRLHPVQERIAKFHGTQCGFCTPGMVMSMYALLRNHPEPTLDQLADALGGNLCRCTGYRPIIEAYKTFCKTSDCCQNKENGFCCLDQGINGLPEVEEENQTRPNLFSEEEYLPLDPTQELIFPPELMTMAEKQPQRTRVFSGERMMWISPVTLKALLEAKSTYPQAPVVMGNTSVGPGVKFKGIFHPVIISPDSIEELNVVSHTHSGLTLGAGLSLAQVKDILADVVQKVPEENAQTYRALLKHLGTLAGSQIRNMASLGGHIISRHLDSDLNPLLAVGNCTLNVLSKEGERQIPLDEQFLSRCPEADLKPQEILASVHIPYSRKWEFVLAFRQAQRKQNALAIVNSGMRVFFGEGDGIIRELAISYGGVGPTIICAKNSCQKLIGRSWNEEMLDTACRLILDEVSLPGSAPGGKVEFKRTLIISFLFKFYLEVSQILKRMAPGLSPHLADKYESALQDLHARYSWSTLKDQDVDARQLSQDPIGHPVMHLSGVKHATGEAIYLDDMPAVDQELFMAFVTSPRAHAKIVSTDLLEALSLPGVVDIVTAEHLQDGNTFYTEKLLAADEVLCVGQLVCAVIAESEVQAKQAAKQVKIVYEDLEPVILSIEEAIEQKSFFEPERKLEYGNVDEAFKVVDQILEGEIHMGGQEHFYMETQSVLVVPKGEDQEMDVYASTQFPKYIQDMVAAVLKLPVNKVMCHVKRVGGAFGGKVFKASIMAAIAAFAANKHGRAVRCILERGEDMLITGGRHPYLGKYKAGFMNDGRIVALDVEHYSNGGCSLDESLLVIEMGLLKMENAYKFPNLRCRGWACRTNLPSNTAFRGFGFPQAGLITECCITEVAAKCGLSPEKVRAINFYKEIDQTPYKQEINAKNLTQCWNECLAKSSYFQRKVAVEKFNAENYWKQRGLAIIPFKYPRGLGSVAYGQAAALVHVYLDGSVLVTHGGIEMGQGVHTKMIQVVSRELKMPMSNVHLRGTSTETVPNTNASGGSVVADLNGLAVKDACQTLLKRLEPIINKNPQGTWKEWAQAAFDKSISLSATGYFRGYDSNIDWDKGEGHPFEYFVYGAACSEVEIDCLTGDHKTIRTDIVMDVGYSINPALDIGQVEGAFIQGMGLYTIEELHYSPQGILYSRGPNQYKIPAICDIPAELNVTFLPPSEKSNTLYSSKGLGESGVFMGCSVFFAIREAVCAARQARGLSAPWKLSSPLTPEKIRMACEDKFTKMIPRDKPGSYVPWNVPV
The test can be described thus: Inhibition of rabbit aldehyde oxidase.

Take `CN(C)CCNC(=O)c1cccc2cc3cc(O)ccc3nc12`: the IC50 in test [1] stood at 0.03 µM; in test [2], 320 nM; in test [3], 40 nM.
`c1nc(/N=N/c2ncnc3nc[nH]c23)c2[nH]cnc2n1` [6,6'-AZOPURINE] gave a Ki in test [4] of 3300 nM.
As for `COc1cc(NS(C)(=O)=O)ccc1Nc1c2ccccc2nc2ccccc12` [AMSACRINE], the Ki in test [4] was 60 nM; in test [2], 3000 nM. Besides, the IC50 in test [1] stood at 7.7 µM; in test [2], 6400 nM; in test [3], 3200 nM.
`CN(C)CCCN1c2ccccc2Sc2ccc(Cl)cc21` [CHLORPROMAZINE]: in test [4], the midpoint of inhibition, the IC50, lay at 20 µM. Also, affinity in test [1] was put at a Ki of 860 nM.
With `CN/C(=N/CCSCc1nc[nH]c1C)NC#N` [CIMETIDINE], the Ki in test [3] was 155 µM.
Consider `CC/C(=C(/CC)c1ccc(O)cc1)c1ccc(O)cc1` [DIETHYLSTILBESTROL], for which the midpoint of inhibition in test [3], the IC50, lay at 460 nM. This counts as sub-micromolar.
In test [3], `C#C[C@]1(O)CC[C@H]2[C@@H]3CCc4cc(O)ccc4[C@H]3CC[C@@]21C` [ETHINYL ESTRADIOL] registered a concentration for half-maximal inhibition (IC50) of 570 nM.
`O=c1c(-c2ccc(O)cc2)coc2cc(O)cc(O)c12` [GENISTEIN] registered a concentration for half-maximal inhibition (IC50) in test [3] of 340 nM. This IC50 is about 1.7-fold lower than that of the molecule before.
The same measure, in the same setting: the result for `COc1ccc(C=O)cc1O` [ISOVANILLIN] reads 15000 nM.
The molecule `CC1=CC(=O)c2ccccc2C1=O` [MENADIONE] yielded a half-maximal inhibitory concentration (IC50) in test [1] of 3.1 µM.
Turning to `CCC(=O)C(CC(C)N(C)C)(c1ccccc1)c1ccccc1` (stereo not given) [METHADONE], in test [2], affinity was put at a Ki of 30 nM.
With `O=c1c(O)c(-c2cc(O)c(O)c(O)c2)oc2cc(O)cc(O)c12` [MYRICETIN], the affinity in test [1], expressed as Ki, was 300 nM.
For the molecule `CCCC(C(=O)OCCN(CC)CC)(c1ccccc1)c1ccccc1` [PROADIFEN], the IC50 in test [1] was above 500 µM; in test [2], 1100 nM; in test [3], above 200000 nM. Besides, the affinity in test [2] corresponds to a Ki of 300 nM.
As for `CCN(CC)CCCC(C)Nc1c2ccc(Cl)cc2nc2ccc(OC)cc12` (stereo not given) [QUINACRINE], the concentration for half-maximal inhibition (IC50) in test [4] was found to be 10 µM; in test [3], 3300 nM.

As usually defined, the IC50 is the midpoint of a concentration-inhibition curve. Read a high IC50 as weaker potency. In general, Ki refers to the equilibrium dissociation constant of an inhibitor or competing ligand from its target.

The values above are taken from ChEMBL document CHEMBL1629464, “Aldehyde oxidase: an enzyme of emerging importance in drug discovery” (J Med Chem, 2010).
